Data on five compounds can be found in paper PMC8922279, “Identification of β-Lactams Active against Mycobacterium tuberculosis by a Consortium of Pharmaceutical Companies and Academic Institutions” (ACS Infectious Diseases, 2022).

One experiment relates to C. albicans. The experiment is described as follows: Microbial spectrum, C. albicans. Type of experiment: cell-based, Candida albicans. As to conditions: no clavulanate; Table S4.
The subject of experiment [1] is Mtb H37Rv. The experiment is described as follows: MIC90 against replicating (R) Mtb H37Rv, with or without clavulanate. The following applies: Table S4; for Mtb H37Rv R + CLAV (MIC90): clavulanate 4 μg/mL; for Mtb H37Rv R (MIC90): no clavulanate. Type of experiment: cell-based, Mycobacterium tuberculosis.
Another experiment concerns P. aeruginosa. Description: Microbial spectrum, P. aeruginosa. The format is cell-based, Pseudomonas aeruginosa. As to conditions: clavulanate 4 μg/mL; Table S4.
Another experiment has as its system S. aureus. The experiment is described as follows: Microbial spectrum, S. aureus. Type of experiment: cell-based, Staphylococcus aureus. As to conditions: clavulanate 4 μg/mL; Table S4.
Experiment [2] relates to Mtb H37Rv. The experiment is described as follows: MIC90 against nonreplicating (NR, 4-stress) Mtb H37Rv, with or without clavulanate. The format is cell-based, Mycobacterium tuberculosis. As to conditions: 4-stress nonreplicating, Table S4; for Mtb H37Rv NR + CLAV (MIC90): clavulanate 4 μg/mL; for Mtb H37Rv NR (MIC90): no clavulanate.
Another experiment relates to E. coli. The experiment is described as follows: Microbial spectrum, E. coli. The format is cell-based, Escherichia coli. The following applies: clavulanate 4 μg/mL; Table S4.

Regarding `CCc1cc[n+](CC2=C(C(=O)[O-])N3C(=O)[C@@H](NC(=O)Cc4cccs4)[C@H]3SC2)cc1` [TBBL-0000418], the C.albicans R (MIC90) in the experiment on C. albicans is greater than 100 µM. In the experiment on Mtb H37Rv [1], the Mtb H37Rv R + CLAV (MIC90) came out at 1.4 µM and the Mtb H37Rv R (MIC90) is 100 µM. The P.aeruginosa R + CLAV (MIC90) with P. aeruginosa is greater than 100 µM. Also, the S.aureus R + CLAV (MIC90) in the experiment on S. aureus was found to be 0.5 µM. Also, in the experiment on Mtb H37Rv [2], the Mtb H37Rv NR + CLAV (MIC90) is greater than 100 µM and the Mtb H37Rv NR (MIC90) was greater than 100 µM. For the same compound, the E.coli R + CLAV (MIC90) with E. coli amounted to 7 µM.
`CCCn1nnnc1SCC1=C(C(=O)O)N2C(=O)[C@@H](NC(=O)Cc3ccc(C4=NCCN4)cc3)[C@H]2SC1` [TBBL-0000311]: in the experiment with C. albicans, the C.albicans R (MIC90) was greater than 100 µM. Besides, in the experiment with Mtb H37Rv [1], the Mtb H37Rv R + CLAV (MIC90) is 0.8 µM and the Mtb H37Rv R (MIC90) was 14.1 µM. Further, the P.aeruginosa R + CLAV (MIC90) in the experiment on P. aeruginosa is greater than 100 µM. In addition, the S.aureus R + CLAV (MIC90) with S. aureus was 0.9 µM. Moreover, in the experiment with Mtb H37Rv [2], the Mtb H37Rv NR + CLAV (MIC90) is greater than 100 µM and the Mtb H37Rv NR (MIC90) is greater than 100 µM. Moreover, the E.coli R + CLAV (MIC90) in the experiment with E. coli was greater than 100 µM.
On to `CCn1nnnc1SCC1=C(C(=O)O)N2C(=O)[C@@H](NC(=O)Cc3ccc(C4=NCCN4)cc3)[C@H]2SC1` [TBBL-0000313], for which the C.albicans R (MIC90) with C. albicans was greater than 100 µM. In the experiment on Mtb H37Rv [1], the Mtb H37Rv R + CLAV (MIC90) was 0.6 µM and the Mtb H37Rv R (MIC90) came out at 17.3 µM. The P.aeruginosa R + CLAV (MIC90) in the experiment on P. aeruginosa was greater than 100 µM. The S.aureus R + CLAV (MIC90) with S. aureus is 0.8 µM. Further, in the experiment on Mtb H37Rv [2], the Mtb H37Rv NR + CLAV (MIC90) is greater than 100 µM and the Mtb H37Rv NR (MIC90) was greater than 100 µM. For the same compound, the E.coli R + CLAV (MIC90) with E. coli was determined as 11.6 µM.
As to `O=C(Cc1cccs1)N[C@@H]1C(=O)N2C(C(=O)[O-])=C(C[n+]3ccccc3)CS[C@H]12` [TBBL-0000493], in the experiment with C. albicans, the C.albicans R (MIC90) is greater than 100 µM. For the same compound, in the experiment on Mtb H37Rv [1], the Mtb H37Rv R + CLAV (MIC90) was 2.2 µM and the Mtb H37Rv R (MIC90) is 50 µM. The P.aeruginosa R + CLAV (MIC90) in the experiment with P. aeruginosa was greater than 100 µM. For the same compound, in the experiment on S. aureus, the S.aureus R + CLAV (MIC90) turned out to be 0.8 µM. In the experiment on Mtb H37Rv [2], the Mtb H37Rv NR + CLAV (MIC90) was greater than 100 µM and the Mtb H37Rv NR (MIC90) was greater than 100 µM. In addition, the E.coli R + CLAV (MIC90) with E. coli stood at 37.9 µM.
As to `O=C(CSc1cccc[n+]1[O-])N[C@@H]1C(=O)N2C(C(=O)O)=C(CSc3cccc[n+]3[O-])CS[C@H]12` [TBBL-0000003], the C.albicans R (MIC90) in the experiment with C. albicans is greater than 100 µM. Besides, in the experiment with Mtb H37Rv [1], the Mtb H37Rv R + CLAV (MIC90) is 3.8 µM and the Mtb H37Rv R (MIC90) was determined as 4.8 µM. Further, the P.aeruginosa R + CLAV (MIC90) with P. aeruginosa was greater than 100 µM. Further, in the experiment with S. aureus, the S.aureus R + CLAV (MIC90) came to 4.3 µM. Further, in the experiment on Mtb H37Rv [2], the Mtb H37Rv NR + CLAV (MIC90) was 3.5 µM and the Mtb H37Rv NR (MIC90) worked out at 3.2 µM. Besides, in the experiment with E. coli, the E.coli R + CLAV (MIC90) came out at 44.1 µM.
